Experimental data published in patent US20210221774A1, “TREATMENT OF POST-TRAUMATIC SYNDROME DISORDER” (Aché Laboratórios Farmacêuticos S.A, priority 2017, published 2021).

Tested on: c-fos expression in key brain regions involved in stress response
Experiment: Single Prolonged Stress (SPS) model, count of c-fos positive neurons in brain regions
Assay type: in vivo
Settings: mice, IA1-29 30 mg/kg p.o. given before SPS, locus ceruleus, amygdala, hypothalamus, bed nuclei stria terminalis (FIG. 1)
Procedure: The quinazolinone of the invention was named IA1-29 and was tested in an in vivo model that mimics the activation that occurs in the brain after a prolonged stress stimulus.
The effects of the administration of IA1-29 at 30 mg/kg p.o. in brain activation were assessed in mice subjected to the Single Prolonged Stress (SPS) model. The SPS protocol is a well established model of PTSD that combines multiple stressors (physical restraint, forced swim, predator scent and ether anesthesia (Borghans & Homberg, 2015; Yamamoto et al., 2009)). The activation of specific brain regions was determined by counting the number of neurons expressing the c-fos protein, an immediate early gene product that can be used as a marker of cell activation in individual neurons. […] The count of c-fos positive neurons in some of these regions can be visualized in FIG. 1. The experiment comprised three different groups (n=10 per group): mice not subjected to the SPS protocol (Sham), mice subjected to the SPS model (SPS) and animals submitted to the SPS protocol but pre-treated with IA1-29 at 30 mg/kg (IA1-29+SPS). The brain regions exemplified in FIG. 1 are locus ceruleus (FIG. 1A), amygdala (FIG. 1B), hypothalamus (FIG. 1C) and bed nuclei stria terminalis (FIG. 1D). […]

COc1ccccc1N1CCN(CCn2cnc3ccccc3c2=O)CC1 [IA1-29, 3-(2-(4-(2-methoxyphenyl)piperazine-1-yl)ethyl) quinazoline-4(3H)-one]
SPS-induced c-fos expression in key brain regions involved in stress response (count of c-fos positive neurons): suppressed
